Legend:
[1] = system: cotyledon of cucumber (variety: Yotsuba); test: Microbicide (Benomyl) absorption enhancement by spraying jasmonic acids; format: in vivo
Procedure: In the present test, Benlate (registered trademark, manufactured by DuPont Corp., containing 50% of Benomyl as the main component) was used as microbicide. As a test material, cotyledon of cucumber (variety: Yotsuba) was used and absorption amount of the microbicide (hereinafter, referred to as “Benomyl absorption amount”) was measured. To the cucumber on day 10 after the seeding was uniformly sprayed 0.22 ml per individual of 0.1% Benlate solution (0.05% Benomyl containing solution) that contains methyl jasmonate (hereinafeter, abbreviated as “MeJA”) or n-propyl (2-pentyl-3-oxocyclopentyl)acetate, also named n-propyldihydrojasmonic acid (hereinafter, abbreviated as “PDJ”) and the cucumber was placed in a glass-made chamber. MeJA or PDJ was mixed to make 0.001 ppm, 0.01 ppm, 0.1 ppm, 1.0 ppm, or 5.0 ppm based on the Benlate solution amount and applied simultaneously. After sealing the lid of the chamber, the cucumber was cultivated in an air-conditioned room. As a control, similarly Benlate-treated cucumber seedlings were placed in a separate chamber and cultivated.
After two days of cultivation, the cotyledons were cut off and the surfaces of them were washed carefully with a neutral detergent. The cotyledons were ground and extracted with heating. The treatment of extraction solution and quantitation of Benomyl were carried out by high performance liquid chromatography referring to the quantitation method of Benomyl in Residual Pesticide Standards Handbook (Kagaku Kogyo Nippo, 1995, pp843-845) using 2-methylbenzimidazolecarbamate, which is a metabolite of Benomyl, as an indicator. […] As will be apparent from Table 1, enhancement of the absorption of Benomyl by application of MeJA or PDJ was observed.
Tests on microbicide absorption enhancement were performed in the same manner as in Test Example 1 using the following compounds. Common names and abbreviations of each compound are shown in the brackets. The compounds were synthesized in the same manner as in the examples in Japanese Patent Application Laid-open No. Hei 11-140022. • 1. […] (dihydrojasmonic acid: DJA) • 2. allyl (2-pentyl-3-oxocyclopentyl)acetate (allyl dihydrojasmonate: ADJ) • 3. 2-pentenyl (2-pentyl-3-oxocyclopentyl)acetate (dihydrojasmonic acid-2-pentenyl: PEDJ) • 4. 3-butenyl (2-pentyl-3-oxocyclopentyl)acetate (dihydrojasmonic acid-3-butenyl: BEDJ) • 5. 3-butynyl (2-pentyl-3-oxocyclopentyl)acetate (butynyl dihydrojasmonate : BYDJ)
Each compound was mixed so that it occupies 0.01 ppm based on the Benlate solution and given at the same time. Extraction and quantitation were practiced by the methods described in Test Example 1. The results are shown as relative values of Benomyl absorption amount in each lot to that of control. As a result, as will be apparent from Table 6, enhancement of absorption of Benomyl was confirmed.

cucumber seedlings = test: Benomyl absorption enhancement by fumigation of methyl jasmonate; format: in vivo; conditions: MeJA fumigation 25 μl/m^3, natural diffusion in sealed chamber; seedlings sprayed with 0.1% Benlate solution
Procedure: MeJA was applied as follows. MeJA Stock solution was charged in an open Petri dish (φ60 mm) to 25 μl/m^3, which was placed in a glass-made chamber and then sealed and allowed to naturally diffuse. Then, cucumber seedlings uniformly sprayed with 0.22 ml per individual of 0.1% Benlate solution (0.05% Benomyl containing solution) were placed and sealed. This was cultivated in an air-conditioned room. As a control cucumber seedlings that had been similarly treated with Benlate but not fumigated with MeJA were placed in a separate chamber and cultivated. Extraction was made in the same manner as in Test Example 1 and comparative quantitation in comparison with control lot was made.

cucumber powdery mildew = test: Powdery mildew preventive effect improvement by methyl jasmonate fumigation; format: in vivo, Sphaeheca fuliginea; conditions: MeJA fumigation 25 μl/m^3 after 0.1% Benlate spraying; infection on day 3; control lot (no fumigation) = 100
Procedure: Cucumber seedlings were cultivated in the same manner as in Test Example 2 and uniformly sprayed with 0.22 ml per individual of 0.1% Benlate solution (0.05% Benomyl containing solution). Thereafter, MeJA fumigation was performed as follows. MeJA Stock solution was charged in an open Petri dish (φ60 mm) to 25 μl/m^3, which was placed in a glass-made chamber and then sealed. On day 3 after the initiation of the fumigation, cucumber powdery mildew was infected in the same manner as in Test Example 3 and powdery mildew plaque number was counted. […] The control lot means a lot in which no MeJA fumigation was performed. Thus, it was confirmed that MeJA fumigation further improved the powdery mildew preventive effect of Benomyl.

Poa annua = test: Herbicidal effect enhancement by PDJ spraying; format: in vivo; conditions: Herbie liquid diluted 1/1000 plus PDJ 0.01 ppm; sprayed 5 ml/15 individuals; dry weight of above-ground part after 2 weeks
Procedure: Seeds of Poa annua were sown on commercially available cultivation soil for raising seedlings and after about 2 weeks of cultivation, seedlings of about 6 cm in height were obtained. For each lots, tests were performed in 5 series each with 3 individuals. The herbicide used was Herbie liquid (registered trademark of Meiji Seika Kaisha Limited, 18% Bialaphos containing solution) diluted to 1/1000. PDJ was used as a pharmacological action enhancer and this was added in an amount of 0.01 ppm based on the liquid amount of the herbicide. Application to the plant body was performed by spraying in an amount of 5 ml/15 individuals. After 2 weeks from the application, the dry weight of above-ground part was measured and mortality was calculated in accordance with the following equation and the effect was compared. […] Wilting Mortality={1−(growth amount of applied lot/growth amount of non-applied lot)}×100

[2] = system: cucumber powdery mildew (Sphaeheca fuliginea); test: Powdery mildew preventive effect improvement by PDJ spraying; format: in vivo; conditions: infection 3 days after application, plaques counted after 10 days, control lot (Benlate without PDJ) = 100
Procedure: Cucumber seedlings were cultivated in the same manner as in Test Example 1 and uniformly sprayed with 0.22 ml per individual of 0.1% Benlate solution (0.05% Benomyl containing solution) mixed with PDJ in an amount of 0.01 ppm or 0.1 ppm based on the amount of Benlate solution. After 3 days from the application of Benlate solution, a spore suspension of cucumber powdery mildew (Sphaeheca fuliginea) prepared to 1.0×10^5 cells/ml was sprayed (0.2 ml per individual) on a first true leaf of each seedling and the seedlings were cultivated in a glass-made chamber. After 10 days, powdery mildew plagues were counted. […] Morbidity=(Average of powdery mildew plaque number on cucumber first true leaf in each treated lot)/(Average of powdery mildew plaque number on cucumber first true leaf in control lot)×100
Here, the control lot means a lot that is treated with a Benlate solution containing no PDJ. Thus, it was confirmed that PDJ spraying further increased the powdery mildew preventive effect of Benomyl.

[3] = Test Example 6: 0.01 ppm based on the Benlate solution, given at the same time
[4] = 0.001 ppm in 0.1% Benlate solution, sprayed simultaneously, cucumber cotyledons after two days
[5] = 0.01 ppm in 0.1% Benlate solution, sprayed simultaneously, cucumber cotyledons after two days
[6] = 0.1 ppm in 0.1% Benlate solution, sprayed simultaneously, cucumber cotyledons after two days
[7] = 1.0 ppm in 0.1% Benlate solution, sprayed simultaneously, cucumber cotyledons after two days

Compound	Relative value (%) of Benomyl absorption amount to that of control lot [1, 3] [%]	Relative value (%) of Benomyl absorption amount to that of control lot [1, 4] [%]	Relative value (%) of Benomyl absorption amount to that of control lot [1, 5] [%]	Relative value (%) of Benomyl absorption amount to that of control lot [1, 6] [%]	Relative value (%) of Benomyl absorption amount to that of control lot [1, 7] [%]	also measured
C=CCOC(=O)CC1CCC(=O)C1CCCCC (stereo not drawn) [ADJ, allyl (2-pentyl-3-oxocyclopentyl)acetate]	145					
C=CCCOC(=O)CC1CCC(=O)C1CCCCC (stereo not drawn) [BEDJ, 3-butenyl (2-pentyl-3-oxocyclopentyl)acetate]	155					
C#CCCOC(=O)CC1CCC(=O)C1CCCCC (stereo not drawn) [BYDJ, 3-butynyl (2-pentyl-3-oxocyclopentyl)acetate]	130					
CC/C=C\CC1C(=O)CCC1CC(=O)OC (stereo not drawn) [MeJA]		96	124	127	142	Relative value (%) of Benomyl absorption amount to that of control lot (cucumber seedlings): 144%; Relative value (%) of Benomyl absorption amount to that of control lot ([1]; 5.0 ppm in 0.1% Benlate solution, sprayed simultaneously, cucumber cotyledons after two days): 113%; Powdery Mildew Morbidity (cucumber powdery mildew): 76
CCCCCC1C(=O)CCC1CC(=O)OCCC (stereo not drawn) [PDJ, n-propyl (2-pentyl-3-oxocyclopentyl)acetate]		103	136	118	110	Wilting Mortality (Poa annua): 81.2%; Powdery Mildew Morbidity ([2]; PDJ 0.01 ppm in 0.1% Benlate solution): 70; Powdery Mildew Morbidity ([2]; PDJ 0.1 ppm in 0.1% Benlate solution): 88
CCC=CCOC(=O)CC1CCC(=O)C1CCCCC (stereo not drawn) [PEDJ, 2-pentenyl (2-pentyl-3-oxocyclopentyl)acetate]	130					

— US7176163B1, “Pharmacological effect potentiators for pesticides” (Meija Seika Kaisha, Ltd., priority 2000, dated 2007)
